# Tested on: mustard oil-induced acute neurogenic inflammation in the mouse ear
# Assay: 5% mustard oil-induced acute neurogenic ear swelling of the mouse, micrometry (Example 2)
# Format: in vivo
# Settings: for AUC of time course of percentage ear swelling: 3 h, control 55.29±4.91
# Description: For the in vivo rat and mouse experiments, 5.5 ml of the 1 mg/ml stock solution of CYT-1010 was prepared freshly every experimental day with 20% HPCD dissolved in sterile distilled water. […] The vehicle was 20% HPCD dissolved in sterile distilled water. Further dilutions of the compound for the smaller administered doses were made with this vehicle, the 500 μg/ml and 100 μg/ml concentrations looked opalescent and the lower concentrations were clear. In rats 0.1 ml/100 g, in mice 0.1 ml/10 g volumes were administered i.v. 10 min before the induction of the inflammation.
# Mice were anaesthesized with urethane (1.2 g/kg i.p.) to achieve a long-lasting deep anaesthesia and minimize respiratory depression. Ten μl of 5% mustard oil dissolved in paraffin oil was smeared on both sides of both ears. Mustard oil in this concentration selectively activates Transient Receptor Potential A1 (TRPA1) on capsaicin-sensitive peptidergic sensory nerves and induces the release of sensory neuropeptides. The released CGRP and substance P (SP) in the innervated area evoke vasodilatation and plasma protein extravasation, collectively called as acute neurogenic inflammation.
# CYT-1010 (1, 10, 100, 500 and 1000 μg/kg; 0.1 ml/10 g from the 0.1, 1, 10, 50 and 100 μg/ml solutions) was administered i.v. 5 min before the induction of the inflammation by mustard oil smearing. Mice in the control group were treated with the same volume of the vehicle, 20% hydroxypropyl-β-cyclodextrin dissolved in sterile distilled water. The experimental protocol is also illustrated in FIG. 1.
# There were 8 mice in each CYT-1010-treated experimental group, and 9 in the vehicle-treated control group. 49 male CD1 mice (25-35 g) altogether were divided into 6 experimental groups: Group 1: vehicle-treated controls (n=9); Group 2: 1 μg/kg CYT-1010 (n=8); Group 3: 10 μg/kg CYT-1010 (n=8); Group 4: 100 μg/kg CYT-1010 (n=8); Group 5: 500 μg/kg CYT-1010 (n=8); and Group 6: 1000 μg/kg CYT-1010 (n=8).
# This study was undertaken in blocks with 12-13 mice per occasion. The whole set of data was obtained during 4 days. There were 2 or 3 solvent-treated rats every day and the remaining 12 animals were randomised to receive each treatment.
# The diameter of the ear was measured with an engineers' micrometer before the treatment and 4 times during the 3 h-examination period (20 min, 1 h, 2 h and 3 h). Oedema was expressed in % compared to the initial control values (Banvolgyi et al., 2004, 2005; Borzsei et al., 2008). Each of these publications is incorporated herein by reference in its entirety.
# Results are expressed as the mean±s.e.m. and analyzed for statistical significance with one-way ANOVA followed by Dunnett post-hoc test when the data were compared to the control group. In the rat in vivo studies, multiple comparisons were also made with Bonferroni's modified t-test to compare the effects of the different doses to each other. *p<0.05 was considered to be significant.
structure (smiles),measurement,setting,value
"NC(Cc1ccc(O)cc1)C(=O)NC1CCCCNC(=O)C(Cc2ccccc2)NC(=O)C(Cc2c[nH]c3ccccc23)NC1=O [CYT-1010, H-Tyr-c-[D-Lys-Trp-Phe]]",AUC of time course of percentage ear swelling,"1 μg/kg i.v., P<0.05",28.99±4.60 units
same,Effect on mustard oil-induced acute neurogenic ear swelling,"1 μg/kg, 10 μg/kg and 100 μg/kg i.v.",significantly reduced
same,AUC of time course of percentage ear swelling,"10 μg/kg i.v., P<0.01",28.15±3.42 units
same,AUC of time course of percentage ear swelling,"100 μg/kg i.v., P<0.01",26.55±5.51 units
same,AUC of time course of percentage ear swelling,"500 μg/kg i.v., NS",52.24±9.70 units
same,AUC of time course of percentage ear swelling,"1000 μg/kg i.v., NS",37.25±5.72 units
same,Effect on mustard oil-induced ear swelling,"1, 10 and 100 μg/kg i.v., at 1 hour",significant anti-edema action
same,Significant inhibition of mustard oil-induced ear swelling,"1-1000 μg/kg i.v., 20 minutes post induction",none of the examined CYT-1010 doses
same,Anti-edema effect on the mouse ear,"1-1000 μg/kg i.v., throughout a 3-h period",significant anti-edema effect
same,Inhibitory action on ear swelling,"10 and 100 μg/kg i.v., both later time points (2 h, 3 h)",statistically significant
same,Effect on mustard oil-induced ear swelling,500 and 1000 μg/kg i.v.,did not influence ear swelling

# Source: patent publication US11324798B2, “Materials and methods for treatment of inflammation” (CYTOGEL PHARMA, LLC, priority 2010, dated 2022)
